Source: patent US12723063B2, “GIPR-agonist compounds” (Eli Lilly and Company, priority 2019, dated 2026)
*1 amine or outer side, *2 acyl side, *3 side chain or, on linkers, in order; H or OH if unused. Where a SMILES comes first, the peptide text is derived from it. Side-chain parts run from the residue outwards. [ ]: non-standard residue; d: D form. The star is where a group is joined. C20 diacid = O=C(O)CCCCCCCCCCCCCCCCCCC(=O)*; αMePhe(2-F) = C[C@](N)(Cc1ccccc1F)C(=O)O; γGlu = O=C(O)[C@H](CCC(=O)[*:2])N[*:1]; 4Pal = N[C@@H](Cc1ccncc1)C(=O)O; αMeL = CC(C)C[C@](C)(N)C(=O)O; AEEA = NCCOCCOCC(=O)O; Aib = CC(C)(N)C(=O)O

Target: T1, human GcgR (Homo sapiens, UniProt P47871)
T1 construct: expressed in transfected cells; crude membranes
Assay: [125I]-Glucagon binding, SPA with WGA beads, 0.1% bacitracin
Conditions: geometric mean, read-out: hGcgR Ki
In short: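 SPA competition binding with WGA beads on crude membranes from HEK293 cells stably expressing hGcgR. Buffer: 25 mM HEPES pH 7.4, 2.5 mM CaCl2, 1 mM MgCl2, 0.1% bacitracin, 0.003% Tween-20; 10-point 3-fold dilutions, NSB with 1 μM Gcg.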

T1 sequence (P47871 26-477): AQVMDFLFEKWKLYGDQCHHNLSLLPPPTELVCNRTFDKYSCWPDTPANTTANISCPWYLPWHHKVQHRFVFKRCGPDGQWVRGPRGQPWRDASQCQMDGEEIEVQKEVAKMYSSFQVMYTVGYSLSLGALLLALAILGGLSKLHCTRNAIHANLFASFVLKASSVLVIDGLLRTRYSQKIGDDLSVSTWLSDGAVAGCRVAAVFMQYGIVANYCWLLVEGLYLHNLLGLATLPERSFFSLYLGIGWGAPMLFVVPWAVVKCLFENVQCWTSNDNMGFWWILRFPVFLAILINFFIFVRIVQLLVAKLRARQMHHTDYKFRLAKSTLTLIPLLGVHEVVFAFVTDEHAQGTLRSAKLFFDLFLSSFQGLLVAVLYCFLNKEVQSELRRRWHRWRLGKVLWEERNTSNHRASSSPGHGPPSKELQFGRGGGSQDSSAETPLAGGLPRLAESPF

Row | SMILES | Ki
1 | CC[C@H](C)[C@H](NC(=O)[C@H](Cc1ccccc1)NC(=O)[C@@H](NC(=O)CNC(=O)[C@H](CCC(=O)O)NC(=O)C(C)(C)NC(=O)[C@@H](N)Cc1ccc(O)cc1)[C@@H](C)O)C(=O)N[C@@H](CO)C(=O)N[C@@H](CC(=O)O)C(=O)N[C@@H](Cc1ccc(O)cc1)C(=O)N[C@@H](CO)C(=O)N[C@H](C(=O)N[C@@](C)(CC(C)C)C(=O)N[C@@H](CC(C)C)C(=O)N[C@@H](CC(=O)O)C(=O)N[C@@H](CCCCN)C(=O)N[C@@H](CCCCNC(=O)COCCOCCNC(=O)COCCOCCNC(=O)CC[C@H](NC(=O)CCCCCCCCCCCCCCCCCCC(=O)O)C(=O)O)C(=O)N[C@@H](Cc1c[nH]cn1)C(=O)N[C@@H](CCC(N)=O)C(=O)NC(C)(C)C(=O)N[C@@H](CC(=O)O)C(=O)N[C@@H](Cc1ccccc1)C(=O)N[C@H](C(=O)N[C@@H](CCC(=O)O)C(=O)N[C@@H](Cc1ccc(O)cc1)C(=O)N[C@@H](CC(C)C)C(=O)N[C@@H](CC(C)C)C(=O)N[C@@H](C)C(=O)NCC(=O)NCC(=O)N1CCC[C@H]1C(=O)N[C@@H](CO)C(=O)N[C@@H](CO)C(=O)NCC(=O)N[C@@H](C)C(=O)N1CCC[C@H]1C(=O)N1CCC[C@H]1C(=O)N1CCC[C@H]1C(=O)N[C@@H](CO)C(N)=O)C(C)C)[C@@H](C)CC [Example 53] (H-Y[Aib]EGTFISDYSI[αMeL]LDKK([AEEA-AEEA-γGlu-C20 diacid])HQ[Aib]DFVEYLLAGGPSSGAPPPS-NH2) | 0.152 µM
2 | CC[C@H](C)[C@H](NC(=O)[C@H](CO)NC(=O)[C@H](Cc1ccc(O)cc1)NC(=O)[C@H](CC(=O)O)NC(=O)[C@H](CO)NC(=O)[C@@H](NC(=O)[C@](C)(Cc1ccccc1F)NC(=O)[C@@H](NC(=O)CNC(=O)[C@H](CCC(=O)O)NC(=O)C(C)(C)NC(=O)[C@@H](N)Cc1ccc(O)cc1)[C@@H](C)O)[C@@H](C)CC)C(=O)N[C@@H](C)C(=O)N[C@@H](CC(C)C)C(=O)N[C@@H](CC(=O)O)C(=O)N[C@@H](CCCCN)C(=O)N[C@@H](CCCCNC(=O)COCCOCCNC(=O)COCCOCCNC(=O)CC[C@H](NC(=O)CCCCCCCCCCCCCCCCCCC(=O)O)C(=O)O)C(=O)N[C@@H](Cc1c[nH]cn1)C(=O)N[C@@H](CCC(N)=O)C(=O)NC(C)(C)C(=O)N[C@@H](CCC(=O)O)C(=O)N[C@@H](Cc1ccccc1)C(=O)N[C@H](C(=O)N[C@@H](CC(N)=O)C(=O)N[C@@H](Cc1ccc(O)cc1)C(=O)N[C@@H](CC(C)C)C(=O)N[C@@H](CC(C)C)C(=O)N[C@@H](C)C(=O)N[C@H](C(=O)NCC(=O)N1CCC[C@H]1C(=O)N[C@@H](CO)C(=O)N[C@@H](CO)C(=O)NCC(=O)N[C@@H](C)C(=O)N1CCC[C@H]1C(=O)N1CCC[C@H]1C(=O)N1CCC[C@H]1C(=O)N[C@@H](CO)C(N)=O)[C@@H](C)O)C(C)C [Example 34] (H-Y[Aib]EGT[αMePhe(2-F)]ISDYSIALDKK([AEEA-AEEA-γGlu-C20 diacid])HQ[Aib]EFVNYLLATGPSSGAPPPS-NH2) | 0.143 µM
3 | CC[C@H](C)[C@H](NC(=O)[C@H](CO)NC(=O)[C@H](Cc1ccc(O)cc1)NC(=O)[C@H](CC(=O)O)NC(=O)[C@H](CO)NC(=O)[C@@H](NC(=O)[C@](C)(CC(C)C)NC(=O)[C@@H](NC(=O)CNC(=O)[C@H](CCC(=O)O)NC(=O)C(C)(C)NC(=O)[C@@H](N)Cc1ccc(O)cc1)[C@@H](C)O)[C@@H](C)CC)C(=O)N[C@@H](C)C(=O)N[C@@H](CC(C)C)C(=O)N[C@@H](CC(=O)O)C(=O)N[C@@H](CCCCN)C(=O)N[C@@H](CCCCNC(=O)COCCOCCNC(=O)COCCOCCNC(=O)CC[C@H](NC(=O)CCCCCCCCCCCCCCCCCCC(=O)O)C(=O)O)C(=O)N[C@@H](Cc1c[nH]cn1)C(=O)N[C@@H](CCC(N)=O)C(=O)NC(C)(C)C(=O)N[C@@H](CCC(=O)O)C(=O)N[C@@H](Cc1ccccc1)C(=O)N[C@H](C(=O)N[C@@H](CC(N)=O)C(=O)N[C@@H](Cc1ccc(O)cc1)C(=O)N[C@@H](CC(C)C)C(=O)N[C@@H](CC(C)C)C(=O)N[C@@H](C)C(=O)N[C@H](C(=O)NCC(=O)N1CCC[C@H]1C(=O)N[C@@H](CO)C(=O)N[C@@H](CO)C(=O)NCC(=O)N[C@@H](C)C(=O)N1CCC[C@H]1C(=O)N1CCC[C@H]1C(=O)N1CCC[C@H]1C(=O)N[C@@H](CO)C(N)=O)[C@@H](C)O)C(C)C [Example 35] (H-Y[Aib]EGT[αMeL]ISDYSIALDKK([AEEA-AEEA-γGlu-C20 diacid])HQ[Aib]EFVNYLLATGPSSGAPPPS-NH2) | > 0.96 µM
4 | CC[C@H](C)[C@H](NC(=O)[C@H](Cc1ccccc1)NC(=O)[C@@H](NC(=O)CNC(=O)[C@H](CCC(=O)O)NC(=O)C(C)(C)NC(=O)[C@@H](N)Cc1ccc(O)cc1)[C@@H](C)O)C(=O)N[C@@H](CO)C(=O)N[C@@H](CC(=O)O)C(=O)N[C@@H](Cc1ccc(O)cc1)C(=O)N[C@@H](CO)C(=O)N[C@H](C(=O)N[C@@](C)(CC(C)C)C(=O)N[C@@H](CC(C)C)C(=O)N[C@@H](CC(=O)O)C(=O)N[C@@H](CCCCN)C(=O)N[C@@H](CCCCNC(=O)COCCOCCNC(=O)COCCOCCNC(=O)CC[C@H](NC(=O)CCCCCCCCCCCCCCCCCCC(=O)O)C(=O)O)C(=O)N[C@@H](Cc1c[nH]cn1)C(=O)N[C@@H](CCC(N)=O)C(=O)NC(C)(C)C(=O)N[C@@H](CCC(=O)O)C(=O)N[C@@H](Cc1ccccc1)C(=O)N[C@H](C(=O)N[C@@H](CCC(=O)O)C(=O)N[C@@H](Cc1ccc(O)cc1)C(=O)N[C@@H](CC(C)C)C(=O)N[C@@H](CC(C)C)C(=O)N[C@@H](CCC(=O)O)C(=O)N[C@H](C(=O)NCC(=O)N1CCC[C@H]1C(=O)N[C@@H](CO)C(=O)N[C@@H](CO)C(=O)NCC(=O)N[C@@H](C)C(=O)N1CCC[C@H]1C(=O)N1CCC[C@H]1C(=O)N1CCC[C@H]1C(=O)N[C@@H](CO)C(N)=O)[C@@H](C)O)C(C)C)[C@@H](C)CC [Example 64] (H-Y[Aib]EGTFISDYSI[αMeL]LDKK([AEEA-AEEA-γGlu-C20 diacid])HQ[Aib]EFVEYLLETGPSSGAPPPS-NH2) | 0.196 µM
5 | CC[C@H](C)[C@H](NC(=O)[C@H](Cc1ccccc1)NC(=O)[C@@H](NC(=O)CNC(=O)[C@H](CCC(=O)O)NC(=O)C(C)(C)NC(=O)[C@@H](N)Cc1ccc(O)cc1)[C@@H](C)O)C(=O)N[C@@H](CO)C(=O)N[C@@H](CC(=O)O)C(=O)N[C@@H](Cc1ccc(O)cc1)C(=O)N[C@@H](CO)C(=O)N[C@H](C(=O)N[C@@](C)(CC(C)C)C(=O)N[C@@H](CC(C)C)C(=O)N[C@@H](CC(=O)O)C(=O)N[C@@H](CCCCN)C(=O)N[C@@H](CCCCNC(=O)COCCOCCNC(=O)COCCOCCNC(=O)CC[C@H](NC(=O)CCCCCCCCCCCCCCCCCCC(=O)O)C(=O)O)C(=O)N[C@@H](Cc1c[nH]cn1)C(=O)N[C@@H](CCC(N)=O)C(=O)NC(C)(C)C(=O)N[C@@H](CC(=O)O)C(=O)N[C@@H](Cc1ccccc1)C(=O)N[C@H](C(=O)N[C@@H](CCC(=O)O)C(=O)N[C@@H](Cc1ccncc1)C(=O)N[C@@H](CC(C)C)C(=O)N[C@@H](CC(C)C)C(=O)N[C@@H](CCC(=O)O)C(=O)N[C@H](C(=O)NCC(=O)N1CCC[C@H]1C(=O)N[C@@H](CO)C(=O)N[C@@H](CO)C(=O)NCC(=O)N[C@@H](C)C(=O)N1CCC[C@H]1C(=O)N1CCC[C@H]1C(=O)N1CCC[C@H]1C(=O)N[C@@H](CO)C(N)=O)[C@@H](C)O)C(C)C)[C@@H](C)CC [Example 45] (H-Y[Aib]EGTFISDYSI[αMeL]LDKK([AEEA-AEEA-γGlu-C20 diacid])HQ[Aib]DFVE[4Pal]LLETGPSSGAPPPS-NH2) | 0.66 µM
6 | CC[C@H](C)[C@H](NC(=O)[C@H](Cc1ccccc1)NC(=O)[C@@H](NC(=O)CNC(=O)[C@H](CCC(=O)O)NC(=O)C(C)(C)NC(=O)[C@@H](N)Cc1ccc(O)cc1)[C@@H](C)O)C(=O)N[C@@H](CO)C(=O)N[C@@H](CC(=O)O)C(=O)N[C@@H](Cc1ccc(O)cc1)C(=O)N[C@@H](CO)C(=O)N[C@H](C(=O)N[C@@](C)(CC(C)C)C(=O)N[C@@H](CC(C)C)C(=O)N[C@@H](CC(=O)O)C(=O)N[C@@H](CCCCN)C(=O)N[C@@H](CCCCNC(=O)COCCOCCNC(=O)COCCOCCNC(=O)CC[C@H](NC(=O)CCCCCCCCCCCCCCCCCCC(=O)O)C(=O)O)C(=O)N[C@@H](Cc1c[nH]cn1)C(=O)N[C@@H](CCC(N)=O)C(=O)NC(C)(C)C(=O)N[C@@H](CC(=O)O)C(=O)N[C@@H](Cc1ccccc1)C(=O)N[C@H](C(=O)N[C@@H](CCC(=O)O)C(=O)N[C@@H](Cc1ccc(O)cc1)C(=O)N[C@@H](CC(C)C)C(=O)N[C@@H](CC(C)C)C(=O)N[C@@H](CCC(=O)O)C(=O)N[C@@H](C)C(=O)NCC(=O)N1CCC[C@H]1C(=O)N[C@@H](CO)C(=O)N[C@@H](CO)C(=O)NCC(=O)N[C@@H](C)C(=O)N1CCC[C@H]1C(=O)N1CCC[C@H]1C(=O)N1CCC[C@H]1C(=O)N[C@@H](CO)C(N)=O)C(C)C)[C@@H](C)CC [Example 68] (H-Y[Aib]EGTFISDYSI[αMeL]LDKK([AEEA-AEEA-γGlu-C20 diacid])HQ[Aib]DFVEYLLEAGPSSGAPPPS-NH2) | 0.29 µM
7 | CC[C@H](C)[C@H](NC(=O)[C@H](CO)NC(=O)[C@H](Cc1ccc(O)cc1)NC(=O)[C@H](CC(=O)O)NC(=O)[C@H](CO)NC(=O)[C@@H](NC(=O)[C@](C)(Cc1ccccc1F)NC(=O)[C@@H](NC(=O)CNC(=O)[C@H](CCC(=O)O)NC(=O)C(C)(C)NC(=O)[C@@H](N)Cc1ccc(O)cc1)[C@@H](C)O)[C@@H](C)CC)C(=O)N[C@@H](C)C(=O)N[C@@H](CC(C)C)C(=O)N[C@@H](CC(=O)O)C(=O)N[C@@H](CCCCN)C(=O)N[C@@H](CCCCNC(=O)COCCOCCNC(=O)COCCOCCNC(=O)CC[C@H](NC(=O)CCCCCCCCCCCCCCCCCCC(=O)O)C(=O)O)C(=O)N[C@@H](Cc1c[nH]cn1)C(=O)N[C@@H](CCC(N)=O)C(=O)NC(C)(C)C(=O)N[C@@H](CC(=O)O)C(=O)N[C@@H](Cc1ccccc1)C(=O)N[C@H](C(=O)N[C@@H](CCC(=O)O)C(=O)N[C@@H](Cc1ccc(O)cc1)C(=O)N[C@@H](CC(C)C)C(=O)N[C@@H](CC(C)C)C(=O)N[C@@H](CCC(=O)O)C(=O)N[C@H](C(=O)NCC(=O)N1CCC[C@H]1C(=O)N[C@@H](CO)C(=O)N[C@@H](CO)C(=O)NCC(=O)N[C@@H](C)C(=O)N1CCC[C@H]1C(=O)N1CCC[C@H]1C(=O)N1CCC[C@H]1C(=O)N[C@@H](CO)C(N)=O)[C@@H](C)O)C(C)C [Example 36] (H-Y[Aib]EGT[αMePhe(2-F)]ISDYSIALDKK([AEEA-AEEA-γGlu-C20 diacid])HQ[Aib]DFVEYLLETGPSSGAPPPS-NH2) | 0.201 µM
